In US8299056B2 (Signal Pharmaceuticals, LLC, priority 2008, dated 2012):

Biological target: T1, Syk (Homo sapiens, UniProt P43405)
T1 construct: purchased Carna Biosciences
Experiment: Syk HTRF assay
Format: biochemical
Details: IC50 activity level, read-out: Activity Level
Outline: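 HTRF kinase assay in HEPES pH 7.6 buffer with MgCl2, DTT and Triton X100; start mix of 87.5 μM ATP and 80 nM biotinylated peptide, 1 h at room temperature. EDTA stop, then Eu-anti-phosphotyrosine/streptavidin-DyLight 647 detection, read as 665/615 nm emission ratio.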

SMILES | IC50 [nM]
CC1(C)C(=O)Nc2cc(Nc3nc4cccc(C(F)(F)C5CCOCC5)n4n3)ccc21 [Example 536, 6-(5-(difluoro(tetrahydro-2H-pyran-4-yl)methyl)-[1,2,4]triazolo[1,5-a]pyridin-2-ylamino)-3,3-dimethylindolin-2-one] | 0.005 to 250
Cc1cc(Nc2nc3cccc(CC4CCOCC4)n3n2)cc2[nH]nc(C)c12 [Example 548, N-(3,4-dimethyl-1H-indazol-6-yl)-5-((tetrahydro-2H-pyran-4-yl)methyl)-[1,2,4]triazolo[1,5-a]pyridin-2-amine] | 0.005 to 250
CC(O)c1nc2ccc(-c3cccc4nc(Nc5ccc(C(F)(F)F)cc5)nn34)cc2[nH]1 (centres unmarked) [Example 402, 1-(6-(2-(4-(trifluoromethyl)phenylamino)-[1,2,4]triazolo[1,5-a]pyridin-5-yl)-1H-benzo[d]imidazol-2-yl)ethanol] | 0.005 to 250
OC[C@@H](Nc1cccc2nc(Nc3ccc(C(F)(F)F)cc3)nn12)c1ccccc1 [Example 413, (S)-2-phenyl-2-(2-(4-(trifluoromethyl)phenylamino)-[1,2,4]triazolo[1,5-a]pyridin-5-ylamino)ethanol] | 1000 to 10000
Cc1ccc(Nc2nc3cccc(N[C@H]4CC[C@@H](O)CC4)n3n2)cn1 [Example 403, cis-4-(2-(6-methylpyridin-3-ylamino)-[1,2,4]triazolo[1,5-a]pyridin-5-ylamino)cyclohexanol] | 0.005 to 250
OC[C@H](Nc1cccc2nc(Nc3ccc(C(F)(F)F)cc3)nn12)c1ccccc1 [Example 412, (R)-2-phenyl-2-(2-(4-(trifluoromethyl)phenylamino)-[1,2,4]triazolo[1,5-a]pyridin-5-ylamino)ethanol] | 1000 to 10000
Oc1cc(-c2cccc3nc(Nc4ccccc4)nn23)ccn1 [Example 517, 4-(2-(phenylamino)-[1,2,4]triazolo[1,5-a]pyridin-5-yl)pyridin-2-ol] | 1000 to 10000
NC(=O)c1ccc(Nc2nc3cccc(NC4CCC(N)CC4)n3n2)cc1 (stereo in doubt) [Example 492, trans-4-(5-(4-aminocyclohexylamino)-[1,2,4]triazolo[1,5-a]pyridin-2-ylamino)benzamide] | 0.005 to 250
O=C(c1ccccc1)c1cccc2nc(Nc3ccccc3)nn12 [Example 509, phenyl(2-(phenylamino)-[1,2,4]triazolo[1,5-a]pyridin-5-yl)methanone] | 1000 to 10000
CN(C)c1cccc2nc(Nc3ccccc3)nn12 [Example 477, N^5,N^5-dimethyl-N^2-phenyl-[1,2,4]triazolo[1,5-a]pyridin-2,5-diamine] | 1000 to 10000
CC(=O)Nc1cccc2nc(Nc3ccccc3)nn12 [Example 527, N-(2-(phenylamino)-[1,2,4]triazolo[1,5-a]pyridin-5-yl)acetamide] | 500 to 1000

Same assay, conditions: activity levels A-D, read-out: Activity Level (IC50 in the Syk HTRF assay)

SMILES | IC50 [nM]
Cc1ccc(Nc2nc3cccc(-c4ccc5nc(CO)[nH]c5c4)n3n2)cn1 [Example 285, (6-(2-(6-methylpyridin-3-ylamino)-[1,2,4]triazolo[1,5-a]pyridin-5-yl)-1H-benzo[d]imidazol-2-yl)methanol] | 0.005 to 250
FC(F)(F)c1ccc(Nc2nc3cccc(N4CCCC4)n3n2)cc1 [Example 307, 5-(pyrrolidin-1-yl)-N-(4-(trifluoromethyl)phenyl)-[1,2,4]triazolo[1,5-a]pyridin-2-amine] | 1000 to 10000
C[C@]1(O)CC[C@H](Nc2cccc3nc(Nc4ccc(C(F)(F)F)cc4)nn23)CC1 [Example 383, trans-1-methyl-4-(2-(4-(trifluoromethyl)phenylamino)-[1,2,4]triazolo[1,5-a]pyridin-5-ylamino)cyclohexanol] | 500 to 1000
FC(F)(F)c1ccc(Nc2nc3cccc(Cc4ccncc4)n3n2)cc1 [Example 372, 5-(pyridin-4-ylmethyl)-N-(4-(trifluoromethyl)phenyl)-[1,2,4]triazolo[1,5-a]pyridin-2-amine] | 1000 to 10000
CC(c1cccc2nc(Nc3ccc(C(F)(F)F)cc3)nn12)N1CCNC(=O)C1 (centres unmarked) [Example 263, 4-(1-(2-(4-(trifluoromethyl)phenylamino)-[1,2,4]triazolo[1,5-a]pyridin-5-yl)ethyl)piperazin-2-one] | 0.005 to 250
OC1CN(c2cccc3nc(Nc4ccc(C(F)(F)F)cc4)nn23)C1 [Example 287, 1-(2-(4-(trifluoromethyl)phenylamino)-[1,2,4]triazolo[1,5-a]pyridin-5-yl)azetidin-3-ol] | 0.005 to 250
Cc1n[nH]c2cc(Nc3nc4cccc(N5CC(O)C5)n4n3)ccc12 [Example 215, 1-(2-(3-methyl-1H-indazol-6-ylamino)-[1,2,4]triazolo[1,5-a]pyridin-5-yl)azetidin-3-ol] | 0.005 to 250
OCC1CCCN1Cc1cccc2nc(Nc3ccc(C(F)(F)F)cc3)nn12 (stereo in doubt) [Example 272, (R)-(1-((2-(4-(trifluoromethyl)phenylamino)-[1,2,4]triazolo[1,5-a]pyridin-5-yl)methyl)pyrrolidin-2-yl)methanol] | 1000 to 10000
Cc1c2ccc(Nc3nc4cccc(N[C@H]5CC[C@@H](O)CC5)n4n3)cc2nn1C [Example 217, cis-4-(2-(2,3-dimethyl-2H-indazol-6-ylamino)-[1,2,4]triazolo[1,5-a]pyridin-5-ylamino)cyclohexanol] | 0.005 to 250
CNC(=O)c1ccc(Nc2nc3cccc(O[C@H]4CC[C@@H](N)CC4)n3n2)cc1 [Example 283, cis-4-(5-(4-aminocyclohexyloxy)-[1,2,4]triazolo[1,5-a]pyridin-2-ylamino)-N-methylbenzamide] | 1000 to 10000
Cc1n[nH]c2cc(Nc3nc4cccc(NC5CCOCC5)n4n3)ccc12 [Example 209, N^2-(3-methyl-1H-indazol-6-yl)-N^5-(tetrahydro-2H-pyran-4-yl)-[1,2,4]triazolo[1,5-a]pyridin-2,5-diamine] | 0.005 to 250
O=C1NCCC1NCc1cccc2nc(Nc3ccc(C(F)(F)F)cc3)nn12 (racemic) [Example 207, (±)-3-((2-(4-(trifluoromethyl)phenylamino)-[1,2,4]triazolo[1,5-a]pyridin-5-yl)methylamino)pyrrolidin-2-one] | 1000 to 10000
O[C@H]1CC[C@@H](Nc2cccc3nc(Nc4ccc5cn[nH]c5c4)nn23)CC1 [Example 365, cis-4-(2-(1H-indazol-6-ylamino)-[1,2,4]triazolo[1,5-a]pyridin-5-ylamino)cyclohexanol] | 0.005 to 250
O=C1NCc2cc(Nc3nc4cccc(N[C@H]5CC[C@@H](O)CC5)n4n3)ccc21 [Example 253, cis-5-(5-(4-hydroxycyclohexylamino)-[1,2,4]triazolo[1,5-a]pyridin-2-ylamino)isoindolin-1-one] | 0.005 to 250
Nc1n[nH]c2cc(Nc3nc4cccc(N[C@H]5CC[C@@H](O)CC5)n4n3)ccc12 [Example 216, cis-4-(2-(3-amino-1H-indazol-6-ylamino)-[1,2,4]triazolo[1,5-a]pyridin-5-ylamino)cyclohexanol] | 0.005 to 250
OCCCOc1cccc2nc(Nc3ccc(C(F)(F)F)cc3)nn12 [Example 304, 3-(2-(4-(trifluoromethyl)phenylamino)-[1,2,4]triazolo[1,5-a]pyridin-5-yloxy)propan-1-ol] | 1000 to 10000

Same assay, conditions: read-out: Activity Level (Syk HTRF assay IC50)

SMILES | IC50 [nM]
Cc1nc2ccc(Nc3nc4cccc(-c5cccc(O)c5)n4n3)cc2[nH]1 [compound 10, 3-(2-(2-methyl-1H-benzo[d]imidazol-6-ylamino)-[1,2,4]triazolo[1,5-a]pyridin-5-yl)phenol] | 0.005 to 250
CC1(C)NC(=O)c2cc(Nc3nc4cccc(N[C@H]5CC[C@H](O)CC5)n4n3)ccc21 (stereo in doubt) [Example 137, trans-6-(5-(4-hydroxycyclohexylamino)-[1,2,4]triazolo[1,5-a]pyridin-2-ylamino)-3,3-dimethylisoindolin-1-one] | 500 to 1000
Cc1n[nH]c2cc(Nc3nc4cccc(N[C@H]5CC[C@@H](O)CC5)n4n3)cc(F)c12 [Example 164, cis-4-(2-(4-fluoro-3-methyl-1H-indazol-6-ylamino)-[1,2,4]triazolo[1,5-a]pyridin-5-ylamino)cyclohexanol] | 0.005 to 250
CNC(=O)c1ccc(Nc2nc3cccc(-c4cccc(OC)c4)n3n2)cc1 [compound 20, 4-(5-(3-methoxyphenyl)-[1,2,4]triazolo[1,5-a]pyridin-2-ylamino)-N-methylbenzamide] | 250 to 500
COCc1nc2ccc(Nc3nc4cccc(CC5CCOCC5)n4n3)cc2[nH]1 [compound 132, N-(2-(methoxymethyl)-1H-benzo[d]imidazol-6-yl)-5-((tetrahydro-2H-pyran-4-yl)methyl)-[1,2,4]triazolo[1,5-a]pyridin-2-amine] | 0.005 to 250
CC(=O)N1CCc2cc(Nc3nc4cccc(-c5ccccc5)n4n3)ccc21 [compound 60, 1-(5-(5-phenyl-[1,2,4]triazolo[1,5-a]pyridin-2-ylamino)indolin-1-yl)ethanone] | 0.005 to 250
CC1(C)NC(=O)c2cc(Nc3nc4cccc(CC5CCOCC5)n4n3)ccc21 [compound 113, 3,3-dimethyl-6-(5-((tetrahydro-2H-pyran-4-yl)methyl)-[1,2,4]triazolo[1,5-a]pyridin-2-ylamino)isoindolin-1-one] | 1000 to 10000
O=C1CCCN1c1ccc(Nc2nc3cccc(-c4ccccc4)n3n2)cc1 [compound 50] | 0.005 to 250
CC1(C)C(=O)Nc2cc(Nc3nc4cccc(OC5CCOCC5)n4n3)ccc21 [Example 168, 3,3-dimethyl-6-(5-(tetrahydro-2H-pyran-4-yloxy)-[1,2,4]triazolo[1,5-a]pyridin-2-ylamino)indolin-2-one] | 0.005 to 250
CNC(=O)c1ccc(Nc2nc3cccc(-c4ccccc4Cl)n3n2)cc1 [compound 22, 4-(5-(2-chlorophenyl)-[1,2,4]triazolo[1,5-a]pyridin-2-ylamino)-N-methylbenzamide] | 1000 to 10000
CNC(=O)c1ccc(Nc2nc3cccc(-c4cccc(CCN)c4)n3n2)cc1 [compound 11, 4-(5-(3-(2-aminoethyl)phenyl)-[1,2,4]triazolo[1,5-a]pyridin-2-ylamino)-N-methylbenzamide] | 250 to 500
